Reference: patent US7361679B2, “2-phenyl-3-heteroarylpropionic acid derivative or salt thereof and medicine containing the same” (Kaken Pharmaceutical Co., Ltd., priority 2001, dated 2008)

Key:
LPAM-1/VCAM-1 = target: T1, LPAM-1/VCAM-1 (Homo sapiens, UniProt P13612+P26010); test: LPAM-1/VCAM-1 adhesion inhibition test; type: cell-based
T1 sequence (P13612 34-1032): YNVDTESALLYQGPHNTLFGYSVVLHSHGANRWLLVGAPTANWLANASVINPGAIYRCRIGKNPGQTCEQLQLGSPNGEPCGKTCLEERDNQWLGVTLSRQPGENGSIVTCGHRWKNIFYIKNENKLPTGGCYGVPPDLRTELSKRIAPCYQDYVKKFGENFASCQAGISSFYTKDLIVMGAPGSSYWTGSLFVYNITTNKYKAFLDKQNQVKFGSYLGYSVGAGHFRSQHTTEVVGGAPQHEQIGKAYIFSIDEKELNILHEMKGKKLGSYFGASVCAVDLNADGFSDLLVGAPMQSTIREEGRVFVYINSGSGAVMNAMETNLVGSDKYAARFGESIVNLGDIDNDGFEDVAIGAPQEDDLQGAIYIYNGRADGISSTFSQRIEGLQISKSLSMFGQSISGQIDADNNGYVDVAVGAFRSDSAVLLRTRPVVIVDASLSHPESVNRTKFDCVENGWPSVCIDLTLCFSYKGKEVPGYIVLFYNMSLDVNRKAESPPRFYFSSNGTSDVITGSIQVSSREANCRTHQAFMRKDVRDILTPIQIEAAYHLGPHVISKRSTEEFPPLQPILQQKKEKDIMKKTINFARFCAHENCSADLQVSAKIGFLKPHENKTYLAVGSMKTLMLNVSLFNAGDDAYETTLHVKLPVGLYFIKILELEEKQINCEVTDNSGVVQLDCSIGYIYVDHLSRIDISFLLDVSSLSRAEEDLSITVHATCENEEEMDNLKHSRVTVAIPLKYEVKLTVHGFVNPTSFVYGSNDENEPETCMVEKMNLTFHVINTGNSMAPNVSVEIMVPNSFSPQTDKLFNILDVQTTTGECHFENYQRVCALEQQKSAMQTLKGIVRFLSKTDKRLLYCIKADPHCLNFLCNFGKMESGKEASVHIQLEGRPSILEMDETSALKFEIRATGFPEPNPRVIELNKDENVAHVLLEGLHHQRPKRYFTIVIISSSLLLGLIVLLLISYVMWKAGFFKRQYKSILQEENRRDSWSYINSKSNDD
T1 sequence (P26010 20-798): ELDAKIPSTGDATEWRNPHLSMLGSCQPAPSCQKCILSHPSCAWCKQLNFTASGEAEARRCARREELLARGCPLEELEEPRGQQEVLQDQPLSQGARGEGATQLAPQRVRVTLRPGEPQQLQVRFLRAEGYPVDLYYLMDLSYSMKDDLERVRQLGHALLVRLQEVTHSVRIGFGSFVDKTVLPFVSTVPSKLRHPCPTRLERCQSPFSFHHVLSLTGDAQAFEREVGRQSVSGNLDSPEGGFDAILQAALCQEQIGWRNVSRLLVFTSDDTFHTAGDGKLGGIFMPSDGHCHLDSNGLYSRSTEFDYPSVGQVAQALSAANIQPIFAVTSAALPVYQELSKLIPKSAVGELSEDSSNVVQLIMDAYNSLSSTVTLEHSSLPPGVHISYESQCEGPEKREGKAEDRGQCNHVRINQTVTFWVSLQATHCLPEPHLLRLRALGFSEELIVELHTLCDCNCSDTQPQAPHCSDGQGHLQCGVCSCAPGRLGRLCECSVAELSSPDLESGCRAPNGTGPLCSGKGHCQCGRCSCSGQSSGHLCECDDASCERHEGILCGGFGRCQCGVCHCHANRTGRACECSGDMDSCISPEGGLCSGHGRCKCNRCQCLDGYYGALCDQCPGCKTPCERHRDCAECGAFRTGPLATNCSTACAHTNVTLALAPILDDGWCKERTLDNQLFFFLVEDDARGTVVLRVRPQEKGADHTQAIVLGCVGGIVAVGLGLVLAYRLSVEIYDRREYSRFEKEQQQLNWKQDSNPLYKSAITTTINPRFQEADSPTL

VLA-4/VCAM-1 = target: T2, VLA-4/VCAM-1 (Homo sapiens, UniProt P05556+P13612); test: VLA-4/VCAM-1 adhesion inhibition test (BCECF-labelled HL-60 cells adhering to VCAM-1 expressing CHO cells); type: cell-based; settings: adhesion of VLA-4 expressing HL-60 cells to CHO cells transfected with human VCAM-1 gene; read-out: 50% inhibition concentration
T2 construct: endogenous in cells; host or cells: HL-60 cells (VLA-4, endogenous); CHO cells transfected with a human VCAM-1 gene (the ligand VCAM-1)
Procedure: Test Example 1 VLA-4/VCAM-1 Adhesion Inhibition Test
The above VCAM-1 expressing CHO cells were placed in a 96-well culture plate in amount of 7×10^3 cells per well and cultured in Ham's F-12 medium containing 10 wt % fetal calf serum (FCS) for 3 days until a confluent state was satisfied. The HL-60 cells were re-floated in Hanks' solution containing 0.4 wt % bovine serum albumin (BSA), and 5 μM of 2′,7′-bis(carboxyethyl)-5(6)-carboxyfluorescein penta acetoxy methyl ester (BCECF-AM) was added to label the cells. Solutions having various concentrations of each test substance and having an amount of 20 μl each were added to 180 μl each of suspensions of BCECF-labeled HL-60 cells re-floated at a rate of 4×10^6 cells/ml in the FCS-non-containing RPMI 1640 culture medium, and pre-treated at 37° C. for 15 minutes.
Then, the pre-treated HL-60 cells were stratified in the 96-well plate culturing the VCAM-1 expressing CHO cells at a rate of 2×10^5 cells per well, and allowed to adhere thereto at 37° C. for 5 minutes. Then, the plate was filled with 0.4 wt % BSA Hanks, covered with a plate sealer and turned upside down. Further, the cells were cultured for 45 minutes. After washing, 1 wt % NP-40-containing PBS was added to destroy the cells, and the thus-obtained supernatants were measured for fluorescence intensity with a cyto Fluor 2300 fluorescence measurement system (supplied by Millipore).
Further, as a blank, 1 wt % NP-40-containing PBS was measured for fluorescence intensity. Further, as standards, a fluorescence-labeled HL-60 floating liquid was added to 1 wt % NP-40-containing PBS at a rate of 2×10^5, 10^5, 2×10^4 and 10^4 cells/ml, the cells were destroyed, and the thus-obtained supernatants were measured for fluorescence intensity.
Each test substance was measured as described above, and on the basis of the calibration curve prepared from the measurements of the standard, cells in a control and cells adhering to the VCAM-1 expressive CHO cells due to the addition of the test substances were measured for numbers, and cell adhesion inhibition ratios (%) were calculated on the basis of the following equation.
Cell adhesion inhibition ratio (%)=100×[1−(number of adhered cells of groups to which the test substance was added/number of adhered cells of control groups)

T2 sequence (P05556 21-798, one chain of several): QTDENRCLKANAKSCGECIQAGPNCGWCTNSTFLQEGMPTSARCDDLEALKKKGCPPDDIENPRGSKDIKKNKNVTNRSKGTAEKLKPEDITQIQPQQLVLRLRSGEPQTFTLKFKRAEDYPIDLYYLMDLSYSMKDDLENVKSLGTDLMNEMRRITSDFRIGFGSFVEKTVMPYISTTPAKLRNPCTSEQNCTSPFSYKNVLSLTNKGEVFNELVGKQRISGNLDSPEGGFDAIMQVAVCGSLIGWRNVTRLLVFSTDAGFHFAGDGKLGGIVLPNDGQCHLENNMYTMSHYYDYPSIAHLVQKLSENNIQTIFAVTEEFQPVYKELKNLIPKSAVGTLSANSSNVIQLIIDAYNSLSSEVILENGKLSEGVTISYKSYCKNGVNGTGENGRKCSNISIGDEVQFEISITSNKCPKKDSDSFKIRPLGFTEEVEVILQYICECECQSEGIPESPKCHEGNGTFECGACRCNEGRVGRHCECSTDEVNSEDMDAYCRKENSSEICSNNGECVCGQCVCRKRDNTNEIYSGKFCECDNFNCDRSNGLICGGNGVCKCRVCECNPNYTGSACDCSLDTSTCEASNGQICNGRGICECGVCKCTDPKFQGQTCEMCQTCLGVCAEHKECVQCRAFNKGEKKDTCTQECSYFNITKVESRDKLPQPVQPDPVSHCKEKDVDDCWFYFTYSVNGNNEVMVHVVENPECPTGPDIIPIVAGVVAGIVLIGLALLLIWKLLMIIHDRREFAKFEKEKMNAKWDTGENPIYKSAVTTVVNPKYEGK

| SMILES | adhesion inhibition activity (LPAM-1/VCAM-1) | IC50 (VLA-4/VCAM-1) |
| --- | --- | --- |
| COc1ccc(C(Cc2ccc(NC(=O)c3c(Cl)cccc3Cl)nc2)C(=O)O)cc1N(CC(C)C)C(=O)C(C)(C)C (centres unmarked) [Example 1, 3-[2-(2,6-dichlorobenzoylamino)pyrid-5-yl]-2-{3-[(2,2-dimethylpropionyl)isobutylamino]-4-methoxyphenyl}propionic acid] | adhesion inhibition activity was found | 3 nM |
| COc1ccc(C(Cc2ccc(NC(=O)c3c(Cl)cccc3Cl)nc2)C(=O)O)cc1N(CC(C)C)C(=O)C(C)C (centres unmarked) [Example 2] |  | 12 nM |
| CCC(CC)C(=O)N(CC(C)C)c1cc(C(Cc2ccc(NC(=O)c3c(Cl)cccc3Cl)nc2)C(=O)O)ccc1OC (centres unmarked) [Example 3] |  | 33 nM |
| CCOc1ccc(C(Cc2ccc(NC(=O)c3c(Cl)cccc3Cl)nc2)C(=O)O)cc1N(CC(C)C)C(=O)C(C)C (centres unmarked) [Example 5] |  | 48 nM |
| CCOc1ccc(C(Cc2ccc(NC(=O)c3c(Cl)cccc3Cl)nc2)C(=O)O)cc1N(CC(C)C)C(=O)C(C)(C)C (centres unmarked) [Example 6] |  | 13 nM |
| CCOc1ccc(C(Cc2ccc(NC(=O)c3c(Cl)cccc3Cl)nc2)C(=O)O)cc1N(CC(C)C)C(=O)C(CC)CC (centres unmarked) [Example 7] |  | 7.3 nM |
| COc1ccc(C(Cc2ccc(NC(=O)c3c(Cl)cncc3Cl)nc2)C(=O)O)cc1N(CC(C)C)C(=O)C(C)(C)C (centres unmarked) [Example 9] | adhesion inhibition activity was found | 2.8 nM |
| CCOc1ccc(C(Cc2ccc(NC(=O)c3c(Cl)cncc3Cl)nc2)C(=O)O)cc1N(CC(C)C)C(=O)C(C)(C)C (centres unmarked) [Example 10] | adhesion inhibition activity was found | 1.2 nM |
